Measurements published in PMC11213934, “Allosteric modulators of M1 muscarinic receptors enhance acetylcholine efficacy and decrease locomotor activity and turning behaviors in zebrafish” (Scientific Reports, 2024).
“Also recorded” adds a separate entry of the source. Where two headings read alike, the source gives them in different places. Marks after values point to notes of the source that are not given here.

Tests used:
[1] = system: wild-type (AB) zebrafish (Danio rerio); assay: Maximum tolerated concentration (MTC) determination in larval zebrafish; assay type: in vivo; settings: for MTC (maximum tolerated concentration): after 24 h exposure, 5 dpf larvae
Experimental: (§1) Larval zebrafish were produced in the University of Toledo zebrafish core facility and housed in an incubator maintained at 28 °C on a 14:10 h cycle. Fish were acclimated to the testing room conditions the evening prior to testing. All testing took place during the 14 h light cycle after the lights had been on for at least 2 h.
Determination of maximum tolerated concentration (adapted from Berghmans)[52] was completed by placing 5 days post fertilization (dpf) wild-type zebrafish larvae in a 24 well plate at 6 fish per well, and one compound concentration per well. […] Death was determined by the absence of heartbeat. Additional endpoints were used to assess toxicity at non-lethal concentrations such as startle capacity (poke stimulus), abnormalities in swimming behavior (loss of dorsoventral balance), and gross morphological deformities (bent body). […] The MTC determination was used to select three doses of each compound (low, medium, high dose) to be used in behavioral assays.

[2] = system: wild-type (AB) zebrafish (Danio rerio); assay: animal or person; assay type: in vivo; settings: for MEC: locomotor behaviors
Experimental: as §1
The movement of larval zebrafish was monitored with the Noldus behavior recording system (Noldus Information Technology, Leesburg VA) and quantified using EthoVision® XT 15 software (Noldus Information Technology, Leesburg VA). Five-dpf zebrafish larvae were exposed to a range of nonlethal concentrations of compounds in a 24-well plate with appropriate controls. The plate was immediately placed in the incubator for a 30-min exposure period. After 30 min, the plate was transferred to the Noldus system and swimming behavior was recorded in 100% light for 30 min to measure spontaneous swimming behavior. The light was switched off for 10 min (dark period) and then switched on for 10 min (light period), which was then repeated for two additional cycles. In total, the larvae were exposed to three cycles of alternating 10 min dark and light periods (100% darkness-to-100% light). Each drug challenge was conducted on three separate plates with n = 6 larvae/dose/plate.
Absolute turn angle (TA) and angular velocity provided measures of the extent of turning behavior, while the intra-individual variance of turn angle quantified how consistently (low variance) or inconsistently (high variance) fish turned. A lowered intra-individual variance of turning reflected repeatedly performing the same turning behavior, a stereotypy.
All data for exposure and the behavioral end points were analyzed by one-way ANOVA (factor: drug concentration) followed by a Dunnett’s multiple comparisons test for post hoc significance between drug concentration and control group. Statistically significant differences are noted as follows; *p < 0.05; **p < 0.01; ***p < 0.001.

[3] = system: wild-type (AB) zebrafish (Danio rerio); assay type: in vivo; settings: compound at 10 µM relative to controls; mean ± s.e.m., N = 12
[4] = target: T1, human M1 muscarinic receptors (Homo sapiens, UniProt P11229); assay: [3H]-arachidonic acid release in CHO cells expressing M1 receptors, with and without ACh (single modulator concentration, four-parameter curves); assay type: cell-based; design: expressed in transfected cells; host or cells: CHO cells stably transfected with hM1, obtained from Mark Brann's laboratory (NIH); settings: for 0.1 µM ACh: response with modulator present divided by response to ACh alone / 100 µM ACh: response with modulator present divided by response to ACh alone / No ACh: agonist effect of the allosteric ligand by itself, fraction of the maximal response that could be elicited by ACh: modulator 10 µM, CHO-hM1, mean ± s.e.m.; for No ACh: agonist effect of the allosteric ligand by itself, fraction of the maximal response that could be elicited by ACh: at least 4 determinations
T1 sequence (P11229 1-460): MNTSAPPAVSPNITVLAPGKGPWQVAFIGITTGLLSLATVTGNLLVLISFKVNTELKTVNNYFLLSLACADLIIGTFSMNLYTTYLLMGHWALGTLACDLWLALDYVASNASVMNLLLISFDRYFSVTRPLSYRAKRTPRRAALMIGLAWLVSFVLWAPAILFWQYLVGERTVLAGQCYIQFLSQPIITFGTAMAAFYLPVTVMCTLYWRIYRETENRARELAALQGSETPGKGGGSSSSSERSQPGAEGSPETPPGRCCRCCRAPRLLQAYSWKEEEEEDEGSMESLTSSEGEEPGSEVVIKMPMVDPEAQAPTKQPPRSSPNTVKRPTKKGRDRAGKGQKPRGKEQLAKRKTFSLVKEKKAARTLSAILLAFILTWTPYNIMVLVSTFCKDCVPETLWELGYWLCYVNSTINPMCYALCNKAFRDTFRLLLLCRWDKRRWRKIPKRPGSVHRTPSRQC
Experimental: CHO cells expressing human M1 muscarinic receptors were cultured at 37 °C in a 5% CO2 atmosphere in F12 medium supplemented with 5% fetal bovine serum, 100 units/ml penicillin, and 100 µg/ml streptomycin. These cells were obtained from Mark Brann’s laboratory when they were at NIH and have been in use by us and others for many years.
Measurement of [^3H]AA release was performed as described in Stahl and Ellis[24]. Stably transfected CHO-hM1 cells were seeded on 24-well plates (Greiner Bio-One GmbH, Frickenhausen, Germany) at a density of 5.0 × 10^4 cells/well in 0.5 ml of F-12 medium. Cells were incubated until they attached (approximately 3 h), followed by the addition of [^3H]AA to a final concentration of 0.05 μCi of [^3H]AA per well. The cells were then grown for 16 to 20 h before the assay was performed. [^3H]AA release was measured in Eagle’s basal medium with 20 mM HEPES and 2 mg/ml fatty acid-free bovine serum albumin (EM-BSA). Cells were rinsed twice with EM-BSA, followed by the addition of EM-BSA media containing experimental agents and incubated for 1 h at 37 °C. The assay was terminated by aspiration of the media, and the amount of [^3H]AA released was determined by liquid scintillation counting (Beckman-Coulter LS6500).
Where indicated (Fig. 2), cells were pretreated with POB to reduce the number of available receptors per cell. Stock POB was made up at 10 mM in ethanol and stored at −20C. Each well was pretreated with 0.5 ml of the appropriate concentration in PBS with 1 mM CaCl2 and 1 mM MgCl2 (PBS+ +) for 30 min at 37 °C, followed by 5 washes with PBS+ + . After pretreatment, the normal protocol follows as above.
Tabulated [^3H]AA release data are represented as a fraction of maximal release elicited by ACh or as the fraction of release elicited by the relevant concentration of ACh alone, as indicated. Dose-response curves were normalized to the maximal response of ACh without allosteric ligand. Where indicated, response curves were analyzed using the empirical four-parameter equation: Y=Top+Bottom-Top/1+X/C50^n where X is the concentration of the ligand used, Y is the amount of response, C50 is the concentration of the ligand that produces 50% of the maximal effect, Top and Bottom are the top and bottom plateaus of the curve, and n is related to the Hill slope for the curve. Where indicated, families of response curves were analyzed according to an allosteric operational model[50],[51]: Y=EM[τAA(KB+αβB)+τBBKA]/[τAA(KB+αβB)+τBBKA+AKB+KAKB+KAB+αAB] where EM is the maximal response; A is the concentration of ACh; B is the concentration of the allosteric ligand; τA and τB represent the operational efficacies of A and B, respectively; KA and KB are the equilibrium dissociation constants of A and B; and α and β represent the cooperativities between A and B in terms of binding and activation, respectively. Curve-fitting was carried out with GraphPad Prism, version 5.0 or 6.0 (San Diego CA).

[5] = compound at 10 µM relative to controls, mean ± s.e.m., N = 12
[6] = modulators at 10 µM (amiodarone 30 µM)

Molecule | MTC (maximum tolerated concentration) [1] [µM] | Therap. index [2] | Distance moved [2, 5] | Variance turn angle [2, 5] | MEC [2] [µM] | Angular velocity [3] [%] | 0.1 µM ACh: response with modulator present divided by response to ACh alone [4] | 100 µM ACh: response with modulator present divided by response to ACh alone [4] | No ACh: agonist effect of the allosteric ligand by itself, fraction of the maximal response that could be elicited by ACh [4] | Effect on M1 receptor activity and ACh response, in words [4, 6] | other results
COc1ccc(CN2C(=O)C(=O)c3ccccc32)cc1Cl [Compound 8f, 1-(3-chloro-4-methoxybenzyl)indoline-2,3-dione] | 10 | 3.3 | 37.4 ± 6.4*** % | 127.9 ± 16.2% | 3 | 157.1 ± 24.5 | 1.67 ± 0.12 | 1.08 ± 0.06 | 0.09 ± 0.04 | – | –
VU0238408 [reference compound] | 30 | 30 | 34.6 ± 4.0*** % | 146.6 ± 12.4*** % | 1 | 180.1 ± 20.3 | – | – | – | – | –
COc1cc(CN2C(=O)C(=O)c3ccccc32)cc(OC)c1OC [Compound 8k, 1-(3,4,5-trimethoxybenzyl)indoline-2,3-dione] | 30 | 30 | 66.2 ± 8.4** % | 126.3 ± 10.8* % | 1 | 154.2 ± 18.0 | 1.55 ± 0.07 | 0.94 ± 0.06 | 0.03 ± 0.00 | – | –
CC(COc1ccccc1)N(CCCl)Cc1ccccc1 (stereo not drawn) [POB, phenoxybenzamine, reference compound] | – | – | – | – | – | – | – | – | – | – | Reduction of receptor number ([4]; pretreatment of cells with 0.3 µM POB): 90%
COc1cccc(CN2C(=O)C(=O)c3ccccc32)c1 [Compound 8j, 1-(3-methoxybenzyl)indoline-2,3-dione] | – | – | – | – | – | – | 1.09 ± 0.31 | 0.96 ± 0.01 | 0.02 ± 0.02 | – | –
CCCCc1oc2ccccc2c1C(=O)c1cc(I)c(O)c(I)c1 [Compound 3, reference compound] | 3 | – | – | – | > 3 | – | 0.63 ± 0.10 | 0.90 ± 0.07 | 0.04 ± 0.01 | suppressed the maximal ACh response | –
CCCCc1oc2ccccc2c1C(=O)c1cc(I)c(OCC[N+](CC)(CC)CC)c(I)c1 [Compound 2, N-ethyl amiodarone, reference compound] | 1 | – | – | – | > 1 | – | 0.13 ± 0.04 | 0.50 ± 0.03 | 0.04 ± 0.02 | NAM of mAChR potency and efficacy | –
CCCCc1oc2ccccc2c1C(=O)c1cc(I)c(OCCN(CC)CC)c(I)c1 [Amiodarone, reference compound] | 10 | – | 85.7 ± 10.2% | 102.2 ± 10.4% | > 10 | 83.2 ± 12.0 | – | – | – | – | Concentration that produced death ([1]; 24 h exposure): 100 µM
CCCCc1oc2ccccc2c1C(=O)c1ccc(O)cc1 [Compound 4, reference compound] | 0.3 | – | – | – | > 0.3 | – | 0.62 ± 0.07 | 0.81 ± 0.06 | 0.04 ± 0.01 | suppressed the maximal ACh response | –
CCCCc1oc2ccccc2c1C(=O)c1cc(I)c(OCCNCC)c(I)c1.Cl [Compound 1, (2-butylbenzofuran-3-yl)(4-(2-(ethylamino)ethoxy)-3,5-diiodophenyl)methanone hydrochloride] | 3 | 1 | – | – | 3 | – | 1.01 ± 0.11 | 0.83 ± 0.09 | 0.18 ± 0.03 | suppressed the maximal ACh response | –
O=C1C(=O)N(Cc2ccc(Br)cc2)c2ccccc21 [VU0119498, reference compound] | – | – | – | – | – | – | 1.28 ± 0.12 | 1.03 ± 0.05 | 0.06 ± 0.01 | – | –
COc1ccc(Cn2cc(C(=O)O)c(=O)c3ccccc32)cc1 [BQCA, reference compound] | – | – | – | 119.6 ± 7.0* % | – | – | – | – | 0.02 ± 0.00 | – | Effect on locomotor activity and turning behaviors, in words ([2]; 30 min spontaneous swimming period): decreased overall locomotor activity; also recorded: increased angular velocity; response vs control in vivo at 10 µM ([2]; Danio rerio, read-out: Distance moved): 72 ± 10%; MEC ([2]; abbreviation not defined in the paper): 3 µM; Angular velocity [2, 5]: 141.8 ± 14.9* %; Effect on M1 receptor activity and ACh response, in words [4]: enhanced potency without appreciable effect on maximal response
